Consider four compounds from US8211883B2, “Topical delivery of phthalocyanines” (priority 2004, dated 2012).

Series [1] concerns Chinese hamster V79-379 lung fibroblasts. Kind of series: Uptake of phthalocyanines into V79 cells. The settings on record: for Uptake Into V79 Cells, 1 μM / Uptake Into V79 Cells, 4 μM: 18 hours; for n Moles/10^6 Cells/μM (composite uptake value): V79 cells, average of all data, asterisk: listed value is for 1 μM, average would be higher. Here is the method: Chinese hamster V79-379 lung fibroblasts were grown in monolayer culture in McCoy's 5A medium (Gibco Laboratories, Grand Island, N.Y.) augmented with 10% calf serum and buffered with 20 mM HEPES (pH 7.4).
Total uptake was determined by scraping the phthalocyanine-treated monolayer, collecting the cells on a glass-fiber filter, and extracting the phthalocyanine in ethanol, as previously described by Ramakrishnan, et al., 1989. (Ramakrishnan, N., M. E. Clay, M. F. Horng, A. R. Antunez, & H. H. Evans, “DNA Lesions and DNA Degradation in Mouse Lymphoma L5178Y Cells After Photodynamic Treatment Sensitized by Chloroaluminum Phthalocyanine”, Photochem. Photobiol, in press, 1989). The amount of drug was determined by absorption at 674 nm and expressed relative to the number of cells, as measured in a Coulter cell counter on an aliquot of the cell population. Controls included cells not treated with drug, medium alone, and drug-containing medium without cells.
The cells were treated with 1 μM AlPcCl (from Eastman Kodak, Rochester, N.Y.) or with phthalocyanine compositions I-VI (0.5-1.0 μM final concentration in the medium) for 18 hours by adding the appropriate volume of a 1.0 mM stock solution in dimethylformamide (DMF) to the culture medium. The growth medium was replaced with 4 mL Hank's balanced salt solution (HBSS), and the cells were irradiated. The light source was a 500 W tungsten-halogen lamp located approximately 29 inches below the surface of a glass exposure tray. The visible light administered to the cells was filtered to allow passage of only that portion of the visible spectrum above 600 nm (Lee Primary red filter No. 106, Vincent Lighting, Cleveland, Ohio). The fluence rate was approximately 0.074 kJ/m^2/s at the level of the cell monolayer.
V79 cells Chinese hamster lung fibroblasts were cultured using the cell culture methods described above. The phthalocyanines listed in table 2 were added to the cultures typically at concentrations of 1 μM, 2 μM, and/or 4 μM and incubated for 18 hours, after which aliquots of the cells were counted and other aliquots were collected on a glass fiber filter. When the filters were dry, the phthalocyanines were extracted into ethanol and the absorption determined at the peak wavelength, usually 668 nm. Values were converted to nmoles taken up by 10^6 cells, using an extinction coefficient of 2.93×10^5.

Series [2] has the same test system. In words: Clonogenic cell survival of V79 cells after photodynamic treatment. The class given is cell-based. How it is done:
Cells were irradiated at a density of approximately 2×10^6 per 25 cm^2 flask. Immediately after irradiation, the cell monolayer was treated with trypsin, and appropriate aliquots were plated in triplicate to give 100 to 200 colonies in each 10-cm Petri dish. Cell survival was determined by the ability of the cells to form colonies containing at least 50 cells. The response of cells treated with 1 μM AlPcCl and light was compared in each experiment.
Photocytotoxicity of the phthalocyanines compounds I to VI was also assessed by clonogenic assay (Table 1, FIG. 1). In all experiments, 1 μM AlPcCl was included for comparison purposes. From the survival curves (FIG. 1), the fluence reducing the cell survival to 10% (F10) was obtained. The ratio of the F10 for AlPcCl and the F10 for the test compound is recorded in Table 1. Compounds I and II appear to be nearly as efficient photosensitizers as AlPcCl, while compound IV (assayed at half the concentration) was almost twice as efficient as the standard AlPcCl. […] However, in spite of the low efficiency of compound V in inhibiting cell growth, survival measurements were made for this compound, because it was taken up into V79 cells somewhat more efficiently than compounds III and VI.
In order to take differences in cellular uptake into consideration in the assessment of the relative efficiency of these phthalocyanines as photosensitizers of V79 cells, the survival data were replotted against the product of intracellular phthalocyanine concentration and light fluence (FIG. 2). From these curves, the product of intracellular concentration and light fluence reducing survival to 10% (CF10) was obtained, and comparisons of the values for AlPcCl and the test compounds are recorded in Table 1. By this and the other criteria, compound IV appears to be the most efficient photosensitizer. However, when consideration is given to the lesser cell uptake of compound V, it appears to be about as strong a photosensitizer as compound IV.
Using the cell culture methods described above, V79 cells Chinese hamster lung fibroblasts were treated with either 0.5 or 1.0 μM of the phthalocyanines listed in Table 3. About 18 hours thereafter, the cells were irradiated with increasing doses of 675 nm broad band red light from a 500 W tungsten-halogen lamp fitted with a 600 nm high pass filter, to determine the light dosage that would kill 90% of the phthalocyanine treated cells. Where 90% of the cells were not killed, the maximum percent of cells killed were determined, (expressed as % survival) and the related light dosage recorded.

The next series concerns L5178Y cells. In words: Induction of apoptosis (DNA ladder) in L5178Y cells after PDT. It counts as cell-based, Mouse. The settings on record: for induction of apoptosis: 1 μM at a fluence of 30 kJ/m^2; for C × F Ld90, Minimum Demonstrated Condition to Induce Apoptosis: product of concentration and fluence.
For series [3], the system named is RIF-1 (radiation-induced fibrosarcoma) tumors. Kind of series: PDT of RIF-1 implanted tumors. The class given is in vivo, C3H/HeN mice. Further details: key to Tumor Responses at 24 hours: complete: no evidence of any tumor mass in any animal; only the scar from the photodynamic therapy was evident.; near complete: evidence of any tumor mass in four or five animals; only some tumor mass in one or two animals.; substantial: a significant tumor shrinkage occurred in all animals. In some animals the tumor response was complete, yet in others the response was not complete.; moderate: some tumor shrinkage was evident in some animals. In animals with some tumor shrinkage, scar formation was evident.; slight: some tumor decrease occurred in one or two mice. The settings on record: 675 nm; for Doubling Time of Initial Tumor Volume after PDT: controls 4 days. Here is the method: The relative effectiveness at reducing tumor volume of selected phthalocyanine compounds at a given dosage was compared in vivo. RIF-1, i.e., radiation-induced fibrosarcoma, tumors were implanted into the backs of C3H/HeN mice. One tumor was implanted per mouse. Each of the phthalocyanine compounds listed in Table 7 was sonicated and vortexed in corn oil to produce a suspension. When the tumors reached […] in diameter and 2-3 mm in thickness, each mouse received 1 mg/kg in 0.1 mL of the corn oil, of the phthalocyanine suspension. For comparison, select mice received a conventional photosensitizer; either 5 mg/kg of chloroaluminum phthalocyanine tetrasulfonate, herein also referred to as “AlPcTS” in phosphate buffered saline or 5 mg/kg of Photofrin®-II in 5% dextrose. Twenty-four hours after the photosensitizers were administered, the tumors were irradiated with visible radiation delivered by an argon-pumped dye laser. The mice that received a phthalocyanine photosensitizer received light having a wavelength of 675 nm and the mice that received the Photofrin® II photosensitizer received light having a wavelength of 630 nm. Each tumor received 135 J/cm^2 of radiation. Tumor size was measured every day using calipers. The initial tumor volume was 50±10 mm^3. Tumor volume was calculated according to the hemiellipsoid model by the formula: V=½(4π)/3×(½×(w/2))×h
• complete—no evidence of any tumor mass in any animal; only the scar from the photodynamic therapy was evident. • near complete—evidence of […] in four or five animals; only some tumor mass in one or two animals. • substantial—a significant tumor shrinkage occurred in all animals. In some animals the tumor response was complete, yet in others the response was not complete. • moderate—some tumor shrinkage was evident in some animals. In animals with some tumor shrinkage, scar formation was evident. • slight—some tumor decrease occurred in one or two mice.

In series [4] the test system is Mouse lymphoma L5178y-R cells. Kind of series: Clonogenic cell survival of PDT-treated LY-R cells. It counts as cell-based. Particulars: 0.5 μM. Here is the method: Mouse lymphoma L5178y-R (hereinafter also referred to as “LY-R”) cells were grown in suspension culture as described in Ramakrishnan N., Oleinick, N. L. Clay, M. E., Homg, M. F., Antunez, A. R., and Evans H. H., Photochem. Photobiol. 50, 373-378, 1989 and Agarwal, M. L., Clay, M. E., Harvey, E. J., Evans, H. H., Antunez, A. R., and Oleinick, N. L., Cancer Res., 51, 5993-5996, 1991.
The cells were used while in exponential growth. Stock solutions of either 0.5 or 1 mM of PcIV, PcXII, PcX, PcXVIII were prepared in dimethylformamide unless otherwise indicated and added to the 10 mL medium at a rate of 1 μL per mL. After allowing 18 hours for uptake of the phthalocyanine into the cells, the flasks containing the cultures were placed on a glass exposure tray above a 500-W tungsten-halogen lamp. The exposure tray was fitted with a 600-nm high-pass filter. Flasks were exposed to various fluences of red light (up to 30 kJ/m^2) at a fluence rate of approximately 74 W/m^2). After irradiation, the cells were collected by centrifugation.
For measurement of clonogenic cell survival, aliquots were plated in medium containing soft agar as described in Ramakrishnan N., Oleinick, N. L. Clay, M. E., Homg, M. F., Antunez, A. R., and Evans H. H., Photochem. Photobiol. 50, 373-378, 1989. The aliquots were plated in sufficient numbers to produce 50-200 colonies. The dishes were kept in an incubator at 37° C. in an atmosphere of 5% CO2 and 95% air for 10-14 days to allow viable cells to form colonies. Colonies were counted by eye. Controls treated with the phthalocyanine alone had plating efficiencies of about […]. The plating efficiencies of the treated cells are normalized to the plating efficiencies of control cells in each experiment. For measurement of the induction of apoptosis, DNA was isolated from the treated and control cells 2 hours after photodynamic therapy, subjected to electrophoresis on 1.5% agarose, stained with ethidium bromide, and visualized by UV transillumination, as described in Agarwal et al. The results are shown in Tables 4, 5 and 6 and in FIG. 3.

Where [5] appears, read: 5 mg/kg in phosphate buffered saline, 135 J/cm^2.

Method for L5178Y cells: The aliquots were plated in sufficient numbers to produce 50-200 colonies. The dishes were kept in an incubator at 37° C. in an atmosphere of 5% CO2 and 95% air for 10-14 days to allow viable cells to form colonies. Colonies were counted by eye. […] The plating efficiencies of the treated cells are normalized to the plating efficiencies of control cells in each experiment.
Cells were treated with various concentrations of the compounds listed in the table and various light fluences. DNA gels were prepared and examined for the characteristic “ladder” pattern of DNA fragments. For each Pc, the minimum total PDT dose tested (calculated as the product of the minimum phthalocyanine concentration and the minimum fluence) which produced visible DNA fragments is recorded. […] PcXVIII was also added at 0.5 and 1.0 μM.

As to `C[Si](C)(CCCCNS(C)(=O)=O)O[Si]1(O[Si](C)(C)CCCCNS(C)(=O)=O)n2c3c4ccccc4c2N=C2N=C(N=c4c5ccccc5c(n41)=NC1=NC(=N3)c3ccccc31)c1ccccc12` [Compound VIII, SiPc[OSi(CH3)2(CH2)4NHSO2CH3]2], in series [1], the “Uptake Into V79 Cells, 1 μM” value was determined as 0.1 ± 0.04 n Moles/10^6 cells; the “Uptake Into V79 Cells, 4 μM” value is 0.8 ± 0.01 n Moles/10^6 cells; the “n Moles/10^6 Cells/μM (composite uptake value)” value (“n Moles/10^6 Cells/μM” below) came to 0.2 n Moles/10^6 Cells/μM. The “Maximum Effect (% survival at kj/m^2)” value in series [2] (1 μM, at 30 kj/m^2) came to 94% at 30. Moreover, the induction of apoptosis entry in the series on L5178Y cells is “did not induce apoptosis”. Besides, the “Tumor Responses at 24 hours” value in series [3] (1 mg/kg in corn oil, 135 J/cm^2, light 24 h after dosing) is given as “slight”. Moreover, the “Doubling Time of Initial Tumor Volume after PDT” value in series [3] (1 mg/kg in corn oil, 135 J/cm^2) was 4 days.

Turning to `CCN(CCC[Si](C)(C)O[Si]1(O)n2c3c4ccccc4c2N=C2N=C(N=c4c5ccccc5c(n41)=NC1=NC(=N3)c3ccccc31)c1ccccc12)CCN(C)C` (centres unmarked) [Compound X, HOSiPcOSi(CH3)2(CH2)3N(CH2CH3)(CH2)2N(CH3)2], the “Uptake Into V79 Cells, 1 μM” value in series [1] amounted to 0.6 ± 0.2 n Moles/10^6 cells. In addition, in series [1], the “Uptake Into V79 Cells, 4 μM” value was 3.3 ± 1.4 n Moles/10^6 cells. Also, the “n Moles/10^6 Cells/μM” value in series [1] came out at 0.7 n Moles/10^6 Cells/μM. Moreover, the “LD 90 (light dosage that kills 90% of cells)” value in series [2] (0.5 μM, 18 hours, 675 nm red light, VII# preplated data only, XXI* not totally soluble at 0.5 mM) is on record as 7 kj/m^2. The “Ld50 (fluence that reduces cell survival to 50%)” value in series [4] worked out at 2.38 kJ/m^2. Moreover, in series [4], the “Ld90 (fluence that reduces cell survival to 10%)” value is given as 4.19 kJ/m^2. Moreover, the “activity relative to PcXII” value in series [4] (from LD50/LD90 fluences) turned out to be 44%. Besides, the “normalized plating efficiency, AVG.” value was found to be 100 in series [4] (light dose 0 kJ/m^2); 71.8 in series [4] (light dose 2 kJ/m^2); 30.1 in series [4] (light dose 3 kJ/m^2); 20.5 in series [4] (light dose 4 kJ/m^2); 0.43 in series [4] (light dose 5 kJ/m^2); 0.031 in series [4] (light dose 6 kJ/m^2). Moreover, in series [4] (light dose 8 kJ/m^2), the “normalized plating efficiency, AVG.” value is 0.00058. The figures for the “Fluence, Minimum Demonstrated Condition to Induce Apoptosis” value in the series with L5178Y cells (0.5 μM) and in the series with L5178Y cells (1.0 μM) were 6.0 kJ/m^2 and 3.0 kJ/m^2, respectively. Moreover, the “C × F Ld90, Minimum Demonstrated Condition to Induce Apoptosis” value in the series on L5178Y cells (0.5 μM) and in the series on L5178Y cells (1.0 μM) was 3.0 kJ/m^2 each time.

Consider `CCN(CC)c1ccc2c(c1)Oc1cc(N(CC)CC)ccc1C21c2ccccc2C(=O)N1CCCC[Si](C)(C)O[Si]1(O[Si](C)(C)C(C)(C)C)n2c3c4ccccc4c2N=C2N=C(N=c4c5ccccc5c(n41)=NC1=NC(=N3)c3ccccc31)c1ccccc12` (centres unmarked) [Compound XV, (CH3)3C(CH3)2SiOSiPcOSi(CH3)2(CH2)4NCOC27H30N2O], for which, in series [1], the “Uptake Into V79 Cells, 1 μM” value turned out to be 0.01 ± 0.01 n Moles/10^6 cells; the “Uptake Into V79 Cells, 4 μM” value is given as 0.14 ± 0.12 n Moles/10^6 cells; the “n Moles/10^6 Cells/μM” value is under 0.05 n Moles/10^6 Cells/μM. In series [2] (4 μM, at 20 kj/m^2), the “Maximum Effect (% survival at kj/m^2)” value turned out to be 81% at 20. Also, the induction of apoptosis result in the series on L5178Y cells is “did not induce apoptosis”.

For “chloroaluminum phthalocyanine tetrasulfonate [AlPcTS, reference compound]”, in series [3] (setting [5]), the “Tumor Responses at 24 hours” value was “substantial” and the “Doubling Time of Initial Tumor Volume after PDT” value worked out at 7 days.
